We go through three compounds from patent publication US20230279011A1, “WATER-SOLUBLE TRYPTHANTRIN DERIVATIVES FOR REDOX FLOW BATTERIES” (UNIVERSIDADE DE COIMBRA, priority 2020, published 2023).

SMILES strings stand for the structures. Read-outs that look alike come from different tables or passages of the source.

The conditions of data set [1]: in 1.0 M H2SO4; cited from earlier work.
The conditions of data set [2]: acidic medium, reported studies; cited from earlier work.
Data set [3] is described as follows: Cyclic voltammetry: oxidation/reduction potentials vs. Ag/AgCl. The data set is classed as physicochemical. The source says:
Klimovich, A. A., Popov, A. M., Krivoshapko, O. N., Shtoda, Y. P. & Tsybulsky, A. V. A comparative assessment of the effects of alkaloid tryptanthrin, rosmarinic acid, and doxorubicin on the redox status of tumor and immune cells. Biophysics 62, 588-594 (2017) and in Jahng, Y. Progress in the studies on tryptanthrin, an alkaloid of history. Arch. Pharm. Res. 36, 517-535 (2013)), the electrochemical behavior of the compounds was initially performed by measuring cyclic voltammetry (CV) of TRYP at different pH values. Cyclic voltammograms (CVs) are presented in FIG. 3 and the relevant electrochemical data including the oxidation (Epa) and reduction (Epc) potentials are summarized in table 1.
Cyclic voltammetry (CV) experiments were carried out using an Autolab potentiostat/galvanostat PGSTAT204 running with NOVA 2.1 software and a three-electrode system in a one-compartment electrochemical cell of capacity 10 mL. A glassy carbon electrode (GCE) (d=3 mm) was the working electrode, glassy carbon (GC) (d=1.6 mm) wires the counter electrode and Ag/AgCl (3.0 M KCl) the reference electrode. The GCE was polished with appropriate polishing pads using first aluminium oxide with particle size 0.3 μm and then aluminium oxide particle with size 0.075 μm (polish in a […] motion) before each electrochemical experiment. After polishing, the electrode was rinsed thoroughly with Milli-Q water and the electrode was sonicate in a container with Milli-Q water and ethanol (50:50 v/v) for 5 minutes. Following this mechanical treatment, the GCE was placed in buffer supporting electrolyte and differential pulse voltammograms were recorded until a steady state baseline voltammogram was obtained.
Depending on the pH experiments different electrolytes were used, for pH=0 (1.0 M H2SO4) solution, for pH=7 (1.0 M KCl) solution and pH =13 (1.0 M NaOH) solution. Potassium ferricyanide ([…]) (1.0 mM solution) with 1.0 M of the proper electrolyte in 10 mL of Milli-Q water was used as standard and also degassed with nitrogen for 10 minutes prior to analysis. Lastly, to measure the OCV for BQDS, 1.0 mM was dissolved into 1.0 M KCl solution. An atmosphere of nitrogen was maintained during the voltammetric experiments, and the samples were run at a scan rate of 50 mV s^−1.

Data set [4] is described as follows: Cyclic voltammetry scan rate study: diffusion coefficient (Randles-Sevcik) and electron transfer rate constant (Nicholson). The data set is classed as physicochemical. On the procedure:
To further verify the correlation between the reaction rate of the catholyte/anolyte pair with the performance and stability of the RFBs, the kinetic parameters, diffusion coefficient (D), and electron transfer rate constant (k0), were quantified.
Electrochemical kinetics studies were conducted by CV measurements and Nicholson analysis. […] The Randles-Sevcik equation, described in Elgrishi et al, A Practical Beginner's Guide to Cyclic Voltammetry. Journal of Chemical Education 2018, 95 (2), 197-206, was used to calculate the diffusion coefficient (D in cm^2 s^−1). A linear fit (ip=slope x v½) yields the slope of the cathodic and anodic peaks from which the D was obtained.
The electron transfer rate constant (k0) of K4[Fe(CN)6]/TRYP-SO3 redox couple was estimated by using the Nicholson method using the D values previously obtained, as described in Nicholson, R. S., Theory and Application of Cyclic Voltammetry for Measurement of Electrode Reaction Kinetics. Analytical Chemistry 1965, 37 (11), 1351-1355.
The electron transfer rate constant (k0) of BQDS/TRYP-SO3 redox couple and TRYP-NH2 was estimated by using the Nicholson method using the D values previously obtained, as described in Nicholson, R. S., Theory and Application of Cyclic Voltammetry for Measurement of Electrode Reaction Kinetics. Analytical Chemistry 1965, 37 (11), 1351-1355.
First, a solution of 1.0 mM of K4[Fe(CN)6] with 1.0 M of KCl in 10 mL of Milli-Q water was used as catholyte. Second, the catholyte was prepared by dissolving 1.0 mM of BQDS into 10 mL of 1.0 M KCl solution. All the solutions were degassed with nitrogen for 10 min prior to analysis. An atmosphere of nitrogen was maintained during the voltammetric experiments, and the samples were run at a scan rate of 10-100 mV s^−1 range. All the CV experiments were carried out at T=293 K.

The nature of data set [5]: Solubility in supporting electrolyte / water. The data set is classed as physicochemical. The following applies: 1.0 M KCl solution, saline or isotonic; in 1.0 M KCl.
Setting [6] is: neutral pH, 1.0 mM in 1.0 M KCl.
Setting [7] is: 1.0 mM in 1.0 M KCl, Nicholson method, T = 293 K.

In the case of `O.O=S(=O)([O-])c1cc(O)c(O)c(S(=O)(=O)[O-])c1.[Na+].[Na+]` [BQDS, 4,5-dihydroxy-1,3-benzenedisulfonic acid disodium salt monohydrate, reference compound], the “Solubility in sulfuric acid” value in data set [1] was 650 mM. The Electrode potential in data set [2] is recorded as 0.76 V. In addition, the “Electrode potential in KCl” value in data set [3] (in KCl, neutral pH) is given as 0.94 V. Also, the “Redox potential vs. Ag/AgCl” value in data set [3] (setting [6]) came out at 0.48 V. In addition, in data set [4] (1.0 mM in 1.0 M KCl, 10-100 mV s^−1, T = 293 K), the “Diffusion coefficient (D)” value amounted to 5.38e-07 cm/s. Moreover, the “Electron transfer rate constant (k0)” value in data set [4] (setting [7]) is 0.000271 cm/s. Besides, the solubility in data set [5] stood at 1280 mM.
For `Nc1ccc2nc3n(c(=O)c2c1)-c1ccccc1C3=O` [TRYP-NH2, 2-aminoindolo[2,1-b]quinazoline-6,12-dione], the “Redox potential vs. Ag/AgCl” value in data set [3] (setting [6]) was −0.45 V. The “Electron transfer rate constant (k0)” value in data set [4] (setting [7]) was 0.264 cm/s.
Turning to `O=C1c2cc(S(=O)(=O)O)ccc2-n2c1nc1ccccc1c2=O` [TRYP-SO3H, 6,12-dioxo-6,12-dihydroindolo[2,1-b]cquinazoline-8-sulfonic acid], the “Redox potential vs. Ag/AgCl” value in data set [3] is −0.46 V. In addition, in data set [3] (pH 13), the “Oxidation potential Epa^1 (first peak)” value was “Epa^1 = 0.225 V”, the “Oxidation potential Epa^2 (second peak)” value was “Epa^2 = 0.738 V”, the “Oxidation potential Epa^3 (third peak)” value was “Epa^3 = 1.178 V” and the “Reduction potential Epc^1 (first peak)” value is recorded as “Epc^1 = −0.325 V”. Moreover, in data set [3] (pH 13), the “Reduction potential Epc^2 (second peak)” value is on record as “Epc^2 = −0.802 V” and the “Reduction potential Epc^3 (third peak)” value was “Epc^3 = −0.930 V”. In data set [4], the “Diffusion coefficient (D)” value worked out at 6.98e-08 cm/s and the “Electron transfer rate constant (k0)” value was 0.000362 cm/s.
